Series [1] concerns hERG1a. Set-up: method as in PMID 27260674. The following applies: read-out: IC50 in hERG1a-transfected HEK293 cells; cited from earlier work.
In another series the test system is CYP1A2. Further details: method as in PMID 24174816, PMID 23274770. To be noted: cited from earlier work.
For series [2], the system named is hERG1a. Set-up: method as in PMID 27260674. The following applies: read-out: IC50 in hERG1a-injected Xenopus oocytes; cited from earlier work.
Series [3] concerns rapidly delayed rectifier potassium current (IKr) in hiPSC-CMs. Further details: method as in PMID 25535742. To be noted: cited from earlier work.
The subject of a further series is hERG1a/Hsp70 complexes. The experiment in a line: Co-immunoprecipitation of cg-hERG1a with chaperone. The format is cell-based, human. To be noted: 24 h. As to the method:
(§1) The co-immunoprecipitation method was adapted and modified slightly from the previously described methodologies[40],[52]. The treated recombinant cells were incubated for 15 min at room temperature with PBS containing cross-linker 1.5 mM dithiobis (succinimidyl propionate) (DSP, Pierce USA). The cross-linker was quenched by addition of 10 mM Tris (pH 7.5) and incubated for 10 min at room temperature. Cells were detached in 10 ml ice-cold PBS and centrifuged at 300 x g for 5 min at 4 °C. The pellet was then resuspended in 300 µl ice-cold complete diluted RIPA lysis buffer containing 0.1% (v/v) NP40, 50 mM Tris pH 7.5, 150 mM NaCl, 1x PMSF solution, 1x sodium orthovanadate solution and 1x protease inhibitor cocktail solution. Subsequently, the cell suspension was incubated at 4 °C for 30 min with constant agitation and finally centrifuged at 14, 000 rpm for 10 min at 4 °C. The supernatant was saved for total protein quantitation and subsequently for co-immunoprecipitation experiments.
(§2) Briefly, 500 µg of isolated total protein was mixed with 2 µg of hERG1 rabbit polyclonal IgG (Santa Cruz Biotechnology Inc., USA), mouse Hsp70/Hsc70 monoclonal antibody (Santa Cruz Biotechnology Inc., USA) or mouse Hsp90α/β monoclonal antibody (Santa-Cruz Biotechnology Inc., USA) respectively and incubated on ice on a rotary shaker overnight. Subsequently, 30 µl of protein A/G PLUS-agarose immunoprecipitation reagent (Santa Cruz Biotechnology Inc., USA) was added into the mixture, and incubated on ice on a shaker for 8 h and subsequently stored in 4 °C overnight. The mixture was centrifuged at 1500 rpm for 5 min at 4 °C, and the pellet was washed with ice-cold PBST, each time repeating the centrifugation process. Finally, the pellet was resuspended in 25 µl 1x Laemmli sample buffer (Bio-Rad Laboratories Inc., USA) with 2.5% (v/v) β-mercaptoethanol, and then heated at 70 °C for 2 h to reverse cross-linking and to release the immunoprecipitated protein from A/G PLUS-agarose beads. The samples were centrifuged at 1500 rpm for 5 min at 4 °C to pellet the agarose beads and 20 µl of the supernatant was used for subsequent SDS-PAGE and immunoblotting analysis as described previously.
(§3) To analyze the immunoprecipitated proteins, the membrane was probed with rabbit anti-potassium channel Kv11.1 extracellular antibody (1:200) (Sigma-Aldrich, USA), mouse Hsp70/Hsc70 monoclonal antibody (1:10, 000) and mouse Hsp90α/β monoclonal antibody (1:10, 000) in the same container. […] To quantify hERG1/chaperone interactions, image densities of the core-glycosylated (cg) hERG1 protein found in immunoprecipitations with anti-hERG1 antibody were used as a measure of total hERG1a protein present. […]

Another series relates to hERG1a/Hsp90 complexes. Nature of the series: Co-immunoprecipitation of cg-hERG1a with chaperone. The format is cell-based, human. To be noted: 10 µM, 24 h, vs untreated control. As to the method:
as §1, §2, §3

In the next series the test system is hERG1b. Nature of the series: Immunofluorescence surface expression (CTCF/area) in HEK293-hERG1a/1b cells. It is filed as cell-based, human. The following applies: 24 h. As to the method: (§4) Briefly, cells were first seeded onto 24 mm × 24 mm pre-coated glass cover slips (Leica Microsystems, Germany) in a 6 well plate containing 10% (v/v) FBS-complete DMEM medium. The sterile glass cover slips (Leica Microsystems, Germany) were coated with HistoGrip (Invitrogen, USA) before use. Cells were first cultured in fresh medium containing 0.5% (v/v) FBS for 4 h before replenishing with medium containing arsenic trioxide (positive control) or mitragynine for 24 h. Medium containing 0.1% (v/v) DMSO was used as control. After incubation, the monolayer cells were fixed with 4% (w/v) paraformaldehyde and incubated for 15 min at room temperature, followed by rinsing with PBST solution and incubating with 0.1% (v/v) Triton X-100 solution for 2 min. Subsequently blocking was performed with 3% (w/v) BSA for 1 h and followed by incubation with primary antibodies against hERG1a (1:1000) and hERG1b (1:125) at 4 °C overnight. Immunolabelling was carried out using anti-rabbit IgG F(ab’)2 Alexa Fluor® 488 molecular probes (Cell Signaling, USA) diluted at 1:250 in 3% (w/v) BSA at room temperature. Finally, the cover slips were mounted using Fluoroshield™ with DAPI (Sigma-Aldrich, USA) and viewed under 600x magnification using Nikon C2 confocal microscope (Nikon, USA). The excitation/emission wavelengths for Alexa Fluor 488 and DAPI were 488/512 nm and 405/488 nm respectively. The laser imaging settings such as laser power, gain and amplification factor were set to be similar for all samples. […] For each test sample, at least 20 cells were randomly selected from the 15 spots for quantitation. The green fluorescence intensity was quantified using ImageJ software (http://imagej.nih.gov/ij/)[72],[73]. Intensity was represented as the “corrected total cell fluorescence” (CTCF) per area using the equation “CTCF/area = [Integrated density - (Area of selected cell × Mean fluorescence of background readings)]/Area of selected cell”. Relative protein expression of hERG1a and hERG1b was determined by dividing the mean CTCF/area of treated cells to that of the untreated control. […]

For series [4], the system named is hERG1a. Described as above. It is filed as cell-based, human. To be noted: 10 µM, 24 h, control 0.1% (v/v) DMSO. As to the method:
as §4

Where two headings read alike, the source gives them in different places.

For orientation: IC50 means the concentration needed to halve the response being measured. Turning to mitragynine, the IC50 in the series on hERG1a [1] was 1620 nM; in the series on hERG1a [2], 1030 nM; in series [3] (read-out: IC50 of IKr suppression in hiPSC-CMs) it was 910 nM. The “effect on CYP1A2 (induction)” value in the series with CYP1A2 was “inductive effect”. In addition, in series [3] (10 µM, hiPSC-CMs), the “action potential duration at 50 and 90% repolarization (APD50 and APD90)” value is given as “significantly prolonged”. The “association of hERG1a/Hsp70” value in the series on hERG1a/Hsp70 complexes (1 µM) and in the series on hERG1a/Hsp70 complexes (10 μM) was “not significantly affected” in each case. Further, in the series with hERG1a/Hsp90 complexes, the “relative expression of hERG1a/Hsp90 complexes” value is “significantly increased”. In addition, the “up-regulation of hERG1a interacting with Hsp90” value in the series on hERG1a/Hsp90 complexes is “approximately 2.5 fold”. For the same substance, the hERG1b fluorescence intensity result in the series with hERG1b (1 µM) and in the series with hERG1b (10 μM) was “unaffected” throughout. The “hERG1a fluorescence intensity vs control” value with hERG1a [4] is listed as “significant reduction to approximately half of the intensity”.
